In PMC8170916, “Sublingual AKBA Exerts Antidepressant Effects in the Aβ-Treated Mouse Model” (Biomolecules, 2021):

Assay: Plasmatic AKBA levels after sublingual or intranasal administration
Type: in vivo, mice
Conditions: 5 mg/kg
Description: AKBA (Cayman Chemical Company) was dissolved in sunflower oil, this vehicle was chosen in order to maintain a better tasting and higher density of the final solution thus reducing reflux through the digestive tract. […] Ten µL of the solution (or vehicle alone) was sublingually administered to mice. For intranasal administration, requiring more hydrophilic solution, AKBA was dissolved in DMSO and saline (1:3, v/v), and given to mice at the same final dose of 5 mg/kg. […]
[…] The pellets were then removed, and the remaining supernatants were dried on sodium sulphate anhydrous, filtered with 0.20 µm PTFE syringe filters and used for chemical analysis. The quantification of 3-O-acetyl-11-keto-β-boswellic acid (AKBA) was performed by using GC-MS/IT equipment composed of a gas chromatograph GC-7890B (Agilent Technologies, Santa Clara, CA, USA) coupled with an ion trap mass spectrometer IT-240 (Agilent Technologies).
The gas chromatograph was equipped with a VF-5 ms (Agilent J&W GC Columns) capillary column, 30 m × 0.25 mm i.d. × 0.25 µm. […]
The MS electron multiplier voltage was set at 1450 V, and an ionization time of 65,000 µs was used, running in the electron impact (EI) mode. […] These characteristic fragments were selected as a mass target to develop the MS acquisition method operating in single ion scan mode (SIS) to improve the LOD and LOQ for AKBA quantification. […]

Compound: CC(=O)O[C@@H]1CC[C@@]2(C)[C@@H](CC[C@]3(C)[C@@H]2C(=O)C=C2[C@@H]4[C@@H](C)[C@H](C)CC[C@]4(C)CC[C@]23C)[C@@]1(C)C(=O)O [AKBA, 3-O-acetyl-11-keto-β-boswellic acid]
- Plasmatic AUCs, sublingual vs intranasal: higher after sublingual administration
- Plasmatic AKBA levels (sublingual vs intranasal, 5, 15 and 30 min after administration): significantly higher after sublingual administration compared to intranasal
